The target of series [1] is Phospholipid-transporting ATPase ABCA1 (Homo sapiens, UniProt O95477). Nature of the series: Activation of ABCA1 (unknown origin).
Series [2] concerns the target T1, Oxysterols receptor LXR-beta (Homo sapiens, UniProt P55055).
T1 sequence (P55055 whole entry): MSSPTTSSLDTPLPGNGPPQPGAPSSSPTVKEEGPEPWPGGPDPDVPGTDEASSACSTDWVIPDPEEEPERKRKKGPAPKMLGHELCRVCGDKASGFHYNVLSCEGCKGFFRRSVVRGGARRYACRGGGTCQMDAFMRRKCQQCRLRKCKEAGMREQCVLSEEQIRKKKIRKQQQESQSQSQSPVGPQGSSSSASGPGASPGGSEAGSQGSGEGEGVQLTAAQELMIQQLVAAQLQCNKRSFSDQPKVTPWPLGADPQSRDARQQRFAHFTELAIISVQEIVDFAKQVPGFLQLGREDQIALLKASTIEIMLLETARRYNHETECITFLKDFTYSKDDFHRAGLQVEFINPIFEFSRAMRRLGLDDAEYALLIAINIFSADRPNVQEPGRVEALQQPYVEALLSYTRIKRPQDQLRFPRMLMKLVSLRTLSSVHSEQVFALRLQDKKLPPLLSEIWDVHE
Nature of the series: Agonist activity at GST tagged LXRbeta (unknown origin) using SRC1 as coactivator peptide incubated for 1 hr by coactivator recruitment based TR-FRET assay. For orientation: TR-FRET usually uses a lanthanide donor and a delayed reading to cut background.

For series [3], the target named is T2, Oxysterols receptor LXR-alpha (Homo sapiens, UniProt Q13133).
T2 sequence (Q13133 whole entry): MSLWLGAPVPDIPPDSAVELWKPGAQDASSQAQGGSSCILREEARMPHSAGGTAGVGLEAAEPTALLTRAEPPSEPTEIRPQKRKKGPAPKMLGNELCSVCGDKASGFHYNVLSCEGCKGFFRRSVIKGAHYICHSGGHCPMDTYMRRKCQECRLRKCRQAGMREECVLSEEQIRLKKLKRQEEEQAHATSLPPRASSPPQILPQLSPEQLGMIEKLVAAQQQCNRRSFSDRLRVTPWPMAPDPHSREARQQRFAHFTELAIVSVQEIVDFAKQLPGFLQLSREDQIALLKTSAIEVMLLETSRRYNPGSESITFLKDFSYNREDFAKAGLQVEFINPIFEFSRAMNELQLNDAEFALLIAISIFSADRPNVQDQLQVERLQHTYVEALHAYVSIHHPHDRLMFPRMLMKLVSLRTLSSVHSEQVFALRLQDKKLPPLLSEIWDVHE
Nature of the series: Agonist activity at GST tagged LXRalpha (unknown origin) using SRC1 as coactivator peptide incubated for 1 hr by coactivator recruitment based TR-FRET assay.

In series [4] the target is Phospholipid-transporting ATPase ABCA1 (Mus musculus) (UniProt P41233). Nature of the series: Activation of ABCA1 in mouse J774.2 cells assessed as increase in fluorescent-tagged cholesterol efflux at 1 uM incubated for 24 hrs by BODIPY based fluorescence analysis. Format: cell-based. To be noted: filed as activator.
Sequence of Phospholipid-transporting ATPase ABCA1 (Mus musculus) (P41233 whole entry): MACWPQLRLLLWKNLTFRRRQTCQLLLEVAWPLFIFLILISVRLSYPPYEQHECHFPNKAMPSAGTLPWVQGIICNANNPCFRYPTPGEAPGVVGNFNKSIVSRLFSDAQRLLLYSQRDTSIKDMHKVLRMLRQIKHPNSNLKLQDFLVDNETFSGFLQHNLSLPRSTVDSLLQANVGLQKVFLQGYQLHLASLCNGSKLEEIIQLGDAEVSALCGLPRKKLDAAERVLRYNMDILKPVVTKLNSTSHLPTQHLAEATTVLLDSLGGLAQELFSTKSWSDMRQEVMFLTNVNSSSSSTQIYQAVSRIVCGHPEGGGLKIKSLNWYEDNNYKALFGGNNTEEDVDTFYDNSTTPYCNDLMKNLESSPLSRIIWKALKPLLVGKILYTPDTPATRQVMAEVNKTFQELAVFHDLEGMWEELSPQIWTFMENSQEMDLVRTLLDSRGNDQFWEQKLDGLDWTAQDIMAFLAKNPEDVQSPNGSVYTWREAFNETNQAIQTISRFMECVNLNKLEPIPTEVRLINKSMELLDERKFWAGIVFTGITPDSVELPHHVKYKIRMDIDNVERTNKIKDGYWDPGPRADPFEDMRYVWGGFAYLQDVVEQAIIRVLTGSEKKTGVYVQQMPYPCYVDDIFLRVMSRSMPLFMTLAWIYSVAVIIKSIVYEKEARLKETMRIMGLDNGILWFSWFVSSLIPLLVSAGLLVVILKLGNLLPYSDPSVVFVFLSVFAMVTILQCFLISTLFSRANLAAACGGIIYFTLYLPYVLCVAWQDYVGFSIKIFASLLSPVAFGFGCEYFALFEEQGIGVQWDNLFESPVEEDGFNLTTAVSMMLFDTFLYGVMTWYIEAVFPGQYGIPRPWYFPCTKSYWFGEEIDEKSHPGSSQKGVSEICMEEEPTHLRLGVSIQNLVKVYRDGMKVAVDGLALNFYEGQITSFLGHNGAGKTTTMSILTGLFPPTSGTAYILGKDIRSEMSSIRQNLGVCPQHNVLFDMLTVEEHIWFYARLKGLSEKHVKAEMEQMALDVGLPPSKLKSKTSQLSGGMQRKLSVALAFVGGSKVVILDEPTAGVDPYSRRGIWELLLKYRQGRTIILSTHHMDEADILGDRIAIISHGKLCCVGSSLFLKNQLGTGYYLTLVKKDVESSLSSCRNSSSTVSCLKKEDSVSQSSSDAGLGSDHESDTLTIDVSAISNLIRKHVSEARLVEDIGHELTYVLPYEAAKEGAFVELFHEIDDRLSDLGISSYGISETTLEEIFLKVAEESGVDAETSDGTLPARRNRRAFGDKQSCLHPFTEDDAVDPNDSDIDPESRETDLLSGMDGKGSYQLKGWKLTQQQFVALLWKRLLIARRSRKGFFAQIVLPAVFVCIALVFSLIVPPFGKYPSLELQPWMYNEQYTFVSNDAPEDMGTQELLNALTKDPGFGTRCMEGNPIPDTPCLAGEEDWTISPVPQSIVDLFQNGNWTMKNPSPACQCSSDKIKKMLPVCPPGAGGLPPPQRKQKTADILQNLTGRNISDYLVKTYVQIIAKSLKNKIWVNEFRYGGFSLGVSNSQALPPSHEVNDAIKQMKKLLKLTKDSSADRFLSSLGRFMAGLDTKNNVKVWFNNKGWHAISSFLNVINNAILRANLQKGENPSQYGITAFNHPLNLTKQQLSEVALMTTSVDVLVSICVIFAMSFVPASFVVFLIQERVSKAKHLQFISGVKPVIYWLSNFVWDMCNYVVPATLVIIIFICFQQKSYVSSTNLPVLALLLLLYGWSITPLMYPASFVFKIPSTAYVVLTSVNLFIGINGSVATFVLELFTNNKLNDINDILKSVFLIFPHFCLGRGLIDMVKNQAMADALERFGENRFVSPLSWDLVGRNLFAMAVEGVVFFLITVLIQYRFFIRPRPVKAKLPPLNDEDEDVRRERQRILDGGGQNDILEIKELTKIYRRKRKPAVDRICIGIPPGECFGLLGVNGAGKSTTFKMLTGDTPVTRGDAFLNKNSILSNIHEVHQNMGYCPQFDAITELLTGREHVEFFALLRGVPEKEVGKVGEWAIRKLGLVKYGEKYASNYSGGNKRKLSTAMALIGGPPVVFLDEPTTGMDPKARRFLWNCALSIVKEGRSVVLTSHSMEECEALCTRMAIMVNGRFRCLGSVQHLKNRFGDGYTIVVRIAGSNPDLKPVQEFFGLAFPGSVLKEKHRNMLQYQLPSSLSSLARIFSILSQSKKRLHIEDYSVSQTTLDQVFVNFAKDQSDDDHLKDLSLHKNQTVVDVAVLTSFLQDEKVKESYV
The target in series [5] is T3, Bile acid receptor (Homo sapiens) (UniProt Q96RI1).
T3 sequence (whole entry): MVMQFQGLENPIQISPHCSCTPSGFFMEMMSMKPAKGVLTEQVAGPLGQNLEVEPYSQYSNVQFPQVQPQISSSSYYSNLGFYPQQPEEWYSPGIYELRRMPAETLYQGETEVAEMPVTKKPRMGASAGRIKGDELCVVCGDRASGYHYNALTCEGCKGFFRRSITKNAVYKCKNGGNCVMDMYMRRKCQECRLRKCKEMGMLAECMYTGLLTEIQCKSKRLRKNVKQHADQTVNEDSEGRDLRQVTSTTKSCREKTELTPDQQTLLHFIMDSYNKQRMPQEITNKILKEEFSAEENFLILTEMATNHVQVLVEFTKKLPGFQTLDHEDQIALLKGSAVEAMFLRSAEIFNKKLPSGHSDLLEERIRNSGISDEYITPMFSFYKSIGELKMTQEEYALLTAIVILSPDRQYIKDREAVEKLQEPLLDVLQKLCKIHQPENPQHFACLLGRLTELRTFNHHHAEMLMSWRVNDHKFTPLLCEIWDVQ
Nature of the series: Agonist activity at FXR LBD (unknown origin) transfected in HEK293T cells by measuring maximal efficacy incubated for 16 hrs by Gal4-reporter gene based luciferase assay. Format: cell-based. (In general: Reporter assays use an easily measured gene product as a stand-in for the process of interest.)

Series [6] concerns HepG2. Nature of the series: Agonist activity at LXR in human HepG2 cells assessed as upregulation of SREBF1 mRNA expression at 10 uM incubated for 24 hrs by qPCR analysis. Format: cell-based. To be noted: filed as agonist. (Real-time PCR tracks product formation cycle by cycle.)
Series [7] is described as follows: Toxicity in wild type C57BL/6 mouse assessed as change in ABCA1 protein expression in brain at 10 mg/kg,po administrated for 7 days by immunoblotting analysis. Format: organism-based. To be noted: in vivo, 168 h, time 7 day.

Data on 15 compounds can be found in ChEMBL document CHEMBL5584351.

The structures appear in SMILES notation. pEC50: −log10 of the molar value. Activity calls are given as the source filed them. The rule behind the calls is not given here. Bounds are passed on as bounds.

As a reminder, the pEC50 is the EC50 on a negative log10 scale, so that one unit is a factor of ten. A lower pEC50 goes with a high EC50. The Emax is the greatest response seen or fitted, relative to the assay's reference.

Sequence of Phospholipid-transporting ATPase ABCA1 (O95477 whole entry): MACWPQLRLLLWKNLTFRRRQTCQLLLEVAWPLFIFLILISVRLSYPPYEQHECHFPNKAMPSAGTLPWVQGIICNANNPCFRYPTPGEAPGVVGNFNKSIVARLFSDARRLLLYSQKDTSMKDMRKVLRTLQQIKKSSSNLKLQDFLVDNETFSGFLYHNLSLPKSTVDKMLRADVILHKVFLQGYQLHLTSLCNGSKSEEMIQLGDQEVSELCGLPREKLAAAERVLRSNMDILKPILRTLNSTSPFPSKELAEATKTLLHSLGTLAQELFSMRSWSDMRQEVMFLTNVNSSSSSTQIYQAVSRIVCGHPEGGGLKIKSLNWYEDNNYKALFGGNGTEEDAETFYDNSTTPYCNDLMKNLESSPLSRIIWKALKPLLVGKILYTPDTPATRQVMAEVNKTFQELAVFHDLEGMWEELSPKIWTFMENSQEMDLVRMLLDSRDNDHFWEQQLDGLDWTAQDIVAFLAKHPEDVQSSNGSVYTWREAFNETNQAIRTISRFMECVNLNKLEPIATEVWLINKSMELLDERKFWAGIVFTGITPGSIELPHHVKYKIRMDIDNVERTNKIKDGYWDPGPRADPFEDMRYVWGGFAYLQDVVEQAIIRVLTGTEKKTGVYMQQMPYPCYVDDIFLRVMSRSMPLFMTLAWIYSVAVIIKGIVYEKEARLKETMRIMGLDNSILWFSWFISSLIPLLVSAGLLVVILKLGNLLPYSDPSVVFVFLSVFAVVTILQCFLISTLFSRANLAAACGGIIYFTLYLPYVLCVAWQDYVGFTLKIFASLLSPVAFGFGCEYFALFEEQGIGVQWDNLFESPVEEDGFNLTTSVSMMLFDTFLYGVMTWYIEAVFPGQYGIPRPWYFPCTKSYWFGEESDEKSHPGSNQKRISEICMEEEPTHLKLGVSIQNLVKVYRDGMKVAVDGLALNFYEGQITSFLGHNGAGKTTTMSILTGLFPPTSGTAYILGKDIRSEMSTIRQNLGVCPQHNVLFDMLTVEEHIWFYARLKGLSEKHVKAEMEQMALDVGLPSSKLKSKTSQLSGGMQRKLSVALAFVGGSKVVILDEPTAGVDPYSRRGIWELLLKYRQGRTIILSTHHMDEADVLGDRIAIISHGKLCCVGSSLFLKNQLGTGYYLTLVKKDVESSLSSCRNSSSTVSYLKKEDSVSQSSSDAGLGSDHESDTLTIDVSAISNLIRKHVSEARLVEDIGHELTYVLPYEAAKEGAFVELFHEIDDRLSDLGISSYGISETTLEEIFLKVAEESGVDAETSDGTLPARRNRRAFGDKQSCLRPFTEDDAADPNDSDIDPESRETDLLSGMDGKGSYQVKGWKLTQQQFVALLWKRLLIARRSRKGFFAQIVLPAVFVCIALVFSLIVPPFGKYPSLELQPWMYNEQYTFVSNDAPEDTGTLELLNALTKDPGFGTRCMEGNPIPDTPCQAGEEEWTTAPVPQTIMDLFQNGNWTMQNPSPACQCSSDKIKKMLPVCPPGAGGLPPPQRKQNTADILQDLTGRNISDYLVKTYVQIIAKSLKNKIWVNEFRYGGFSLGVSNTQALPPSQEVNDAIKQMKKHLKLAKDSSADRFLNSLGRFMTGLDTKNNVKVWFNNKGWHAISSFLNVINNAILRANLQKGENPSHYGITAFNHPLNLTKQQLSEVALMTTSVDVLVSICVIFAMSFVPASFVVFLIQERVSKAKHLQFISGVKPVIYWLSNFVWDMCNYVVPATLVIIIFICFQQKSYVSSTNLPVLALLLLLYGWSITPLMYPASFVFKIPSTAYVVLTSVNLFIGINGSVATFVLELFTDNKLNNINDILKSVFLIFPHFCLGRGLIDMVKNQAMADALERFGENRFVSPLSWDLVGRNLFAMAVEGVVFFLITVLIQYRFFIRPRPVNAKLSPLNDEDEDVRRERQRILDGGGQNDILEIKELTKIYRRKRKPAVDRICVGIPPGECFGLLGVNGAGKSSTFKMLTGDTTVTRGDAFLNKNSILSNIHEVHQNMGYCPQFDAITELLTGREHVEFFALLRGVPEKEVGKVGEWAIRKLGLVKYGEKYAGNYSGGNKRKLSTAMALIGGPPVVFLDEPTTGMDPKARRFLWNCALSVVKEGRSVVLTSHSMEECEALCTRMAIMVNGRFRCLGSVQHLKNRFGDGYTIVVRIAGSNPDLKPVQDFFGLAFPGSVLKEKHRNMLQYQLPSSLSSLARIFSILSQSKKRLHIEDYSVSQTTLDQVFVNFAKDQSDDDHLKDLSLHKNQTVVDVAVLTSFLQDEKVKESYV

`CN(CC(=O)Nc1ccc(F)c(F)c1F)C(=O)c1ccc2c(c1)OCCO2` showed a pEC50 in series [1] of less than 6.00. Consider `CCOc1ccc(N(C)S(=O)(=O)c2cc(Cl)sc2C(=O)Nc2cc(Cl)cc(C(=O)OCCOC)c2)cc1OC`, for which, in series [2], the pEC50 was 6.24. In series [3], `CCOC(=O)c1cccc(-c2nnc(-c3sc(Cl)cc3S(=O)(=O)N(C)c3ccc(OCC)c(OC)c3)o2)c1` showed a pEC50 of less than 4.60.

`CCOC(=O)c1cccc(NC(=O)c2sccc2S(=O)(=O)N(C)c2ccc(OCC)c(OCC)c2)c1`: the pEC50 is 5.35 in series [2] and 5.46 in series [3]. Turning to `CCCOc1ccc(N(C)S(=O)(=O)c2ccsc2C(=O)Nc2cccc(C(=O)OCC)c2)cc1`, in series [2], the pEC50 is 4.96. `CCOc1ccc(N(C)S(=O)(=O)c2ccsc2C(=O)Nc2cccc(C(=O)OC)c2)cc1` showed a negative-log EC50 (pEC50) in series [2] of less than 4.60. For the compound `O=S(=O)(c1ccccc1)N(CC(F)(F)F)c1ccc(C(O)(C(F)(F)F)C(F)(F)F)cc1`, the outcome in series [4] and in series [6] was Active. In series [5], this compound gave an Emax of 35%.

For the compound `CCOC(=O)c1cccc(NC(=O)c2sc(Cl)cc2S(=O)(=O)N(C)c2ccc(N(C)C)cc2)c1`, the pEC50 in series [3] was 4.96. With `CCOC(=O)c1cccc(NC(=O)c2sc(Cl)cc2S(=O)(=O)N(C)c2ccc(OCC)cc2)c1`, the pEC50 is 4.89 in series [2] and 5.32 in series [3]. Regarding `O=C(O)Cc1cccc(OCCCN(Cc2cccc(C(F)(F)F)c2Cl)CC(c2ccccc2)c2ccccc2)c1`, the Activity result in series [7] is “Toxic”. For `CCOC(=O)c1cccc(NC(=O)c2sc(Cl)cc2S(=O)(=O)N(C)c2ccc(OCC)c(OC)c2)c1`, in series [3], the pEC50 was 6.02. Still for that read-out and setting: as for `CCOc1ccc(N(C)S(=O)(=O)c2cc(Cl)sc2C(=O)Nc2cc(Cl)cc(C(=O)OCCOCCOC)c2)cc1OC`, the figure is 6.00; as for `CCOc1ccc(N(C)S(=O)(=O)c2cc(Cl)sc2C(=O)Nc2cccc(C(=O)OCCOCCOC)c2)cc1OCC`, less than 4.60.

In the case of `CCOc1ccc(N(C)S(=O)(=O)c2cc(Cl)sc2C(=O)Nc2cc(Cl)cc(C3OCCO3)c2)cc1OC`, the pEC50 is 4.89 in series [2] and 4.82 in series [3]. Compound `CCOc1ccc(N(C)S(=O)(=O)c2cc(Cl)sc2C(=O)Nc2cccc(C(=O)OCCOC)c2)cc1OCC` had a pEC50 in series [2] of 4.82.
